Source: ChEMBL document CHEMBL5465560, “Selectivity Literature for EUbOPEN Chemogenomic Library” (2024)
Blank lines part the entries; values can stand above or below the compound they belong to.

Legend:
[1] = target: T1, Dual serine/threonine and tyrosine protein kinase (Homo sapiens) (UniProt Q6XUX3); conditions: at 10 µM
T1 sequence (whole entry): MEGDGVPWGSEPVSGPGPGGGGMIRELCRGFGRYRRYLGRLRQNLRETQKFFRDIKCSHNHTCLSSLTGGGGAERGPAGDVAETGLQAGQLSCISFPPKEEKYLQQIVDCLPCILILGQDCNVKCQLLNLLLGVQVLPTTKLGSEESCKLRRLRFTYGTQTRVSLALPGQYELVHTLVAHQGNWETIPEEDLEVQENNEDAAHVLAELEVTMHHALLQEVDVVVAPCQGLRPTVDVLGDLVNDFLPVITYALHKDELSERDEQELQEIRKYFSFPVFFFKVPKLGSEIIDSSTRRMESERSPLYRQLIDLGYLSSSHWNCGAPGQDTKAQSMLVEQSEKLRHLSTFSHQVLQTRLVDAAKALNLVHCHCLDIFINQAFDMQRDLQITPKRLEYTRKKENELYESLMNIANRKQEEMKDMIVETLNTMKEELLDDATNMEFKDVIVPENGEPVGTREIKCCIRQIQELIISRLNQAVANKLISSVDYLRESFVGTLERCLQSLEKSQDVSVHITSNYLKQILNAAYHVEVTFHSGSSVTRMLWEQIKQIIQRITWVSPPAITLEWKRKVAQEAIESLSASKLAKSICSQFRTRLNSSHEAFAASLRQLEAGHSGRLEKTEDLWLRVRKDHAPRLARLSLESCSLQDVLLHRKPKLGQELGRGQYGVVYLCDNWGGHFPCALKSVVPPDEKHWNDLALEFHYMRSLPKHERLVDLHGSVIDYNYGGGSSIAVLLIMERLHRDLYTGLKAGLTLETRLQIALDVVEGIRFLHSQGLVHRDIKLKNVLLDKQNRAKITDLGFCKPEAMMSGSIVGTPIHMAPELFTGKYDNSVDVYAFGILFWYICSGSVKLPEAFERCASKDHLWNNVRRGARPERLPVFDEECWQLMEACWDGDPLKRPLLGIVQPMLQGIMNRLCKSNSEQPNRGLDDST

[2] = target: Tyrosine-protein kinase JAK1 (Homo sapiens, UniProt P23458); assay: Selectivity interaction (ActivX KiNativ screen (kinase selectivity in THP-1 cell lysates)) EUB0000639a JAK1; assay type: subcellular; conditions: lysate, at 0.04 µM
Tyrosine-protein kinase JAK1, sequence (P23458 whole entry): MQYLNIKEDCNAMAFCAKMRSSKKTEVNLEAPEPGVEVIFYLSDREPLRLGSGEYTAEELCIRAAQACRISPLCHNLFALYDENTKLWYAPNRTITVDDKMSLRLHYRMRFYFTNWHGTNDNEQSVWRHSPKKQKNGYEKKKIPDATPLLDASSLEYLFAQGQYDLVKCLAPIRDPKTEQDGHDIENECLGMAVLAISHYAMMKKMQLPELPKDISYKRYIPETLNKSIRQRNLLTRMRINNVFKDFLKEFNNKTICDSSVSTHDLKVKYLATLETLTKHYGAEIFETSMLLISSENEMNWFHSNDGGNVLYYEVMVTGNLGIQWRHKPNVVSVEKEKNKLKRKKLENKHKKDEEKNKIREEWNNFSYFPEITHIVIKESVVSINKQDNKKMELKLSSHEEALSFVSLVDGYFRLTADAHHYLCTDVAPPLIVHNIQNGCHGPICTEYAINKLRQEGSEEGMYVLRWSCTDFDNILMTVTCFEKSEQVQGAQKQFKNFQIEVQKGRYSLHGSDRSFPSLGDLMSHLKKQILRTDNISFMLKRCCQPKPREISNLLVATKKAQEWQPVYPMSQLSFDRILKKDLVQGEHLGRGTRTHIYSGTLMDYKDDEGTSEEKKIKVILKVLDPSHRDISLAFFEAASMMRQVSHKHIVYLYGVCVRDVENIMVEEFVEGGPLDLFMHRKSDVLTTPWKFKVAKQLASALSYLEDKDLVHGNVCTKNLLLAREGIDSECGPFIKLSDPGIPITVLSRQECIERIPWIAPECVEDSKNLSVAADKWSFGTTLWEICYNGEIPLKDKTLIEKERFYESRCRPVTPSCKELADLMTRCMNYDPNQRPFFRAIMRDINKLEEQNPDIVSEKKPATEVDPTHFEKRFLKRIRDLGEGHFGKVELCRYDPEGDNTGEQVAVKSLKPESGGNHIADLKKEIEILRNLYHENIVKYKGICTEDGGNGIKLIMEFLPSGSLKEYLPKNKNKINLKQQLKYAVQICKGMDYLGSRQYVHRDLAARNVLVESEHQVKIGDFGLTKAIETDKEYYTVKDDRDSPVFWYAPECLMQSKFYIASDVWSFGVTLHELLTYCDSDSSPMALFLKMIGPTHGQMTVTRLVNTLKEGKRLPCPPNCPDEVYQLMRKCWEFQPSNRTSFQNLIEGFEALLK

[3] = target: T2, cGMP-dependent protein kinase 2 (Homo sapiens) (UniProt Q13237); assay: Selectivity interaction (KinomeScan (DiscoverX)) EUB0000229b PRKG2; conditions: at 10 µM
T2 sequence (whole entry): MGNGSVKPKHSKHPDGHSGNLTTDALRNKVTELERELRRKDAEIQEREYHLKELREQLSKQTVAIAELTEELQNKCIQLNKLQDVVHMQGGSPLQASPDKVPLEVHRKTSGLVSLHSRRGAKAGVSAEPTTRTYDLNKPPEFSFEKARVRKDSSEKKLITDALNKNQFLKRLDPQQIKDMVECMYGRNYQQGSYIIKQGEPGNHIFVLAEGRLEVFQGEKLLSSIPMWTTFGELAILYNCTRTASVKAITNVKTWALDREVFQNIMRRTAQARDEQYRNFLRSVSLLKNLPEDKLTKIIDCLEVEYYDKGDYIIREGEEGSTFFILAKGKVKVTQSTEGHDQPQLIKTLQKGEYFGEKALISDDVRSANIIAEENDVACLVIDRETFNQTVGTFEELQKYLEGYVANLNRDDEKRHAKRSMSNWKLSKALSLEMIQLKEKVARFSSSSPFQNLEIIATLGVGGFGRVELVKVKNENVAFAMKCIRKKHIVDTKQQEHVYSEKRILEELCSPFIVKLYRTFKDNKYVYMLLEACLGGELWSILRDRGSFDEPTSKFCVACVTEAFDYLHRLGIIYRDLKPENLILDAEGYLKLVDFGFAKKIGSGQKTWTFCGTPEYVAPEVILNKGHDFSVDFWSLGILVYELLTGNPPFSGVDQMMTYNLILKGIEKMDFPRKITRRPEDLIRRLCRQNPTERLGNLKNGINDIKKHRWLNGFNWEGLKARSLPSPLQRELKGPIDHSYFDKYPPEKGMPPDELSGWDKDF

[4] = target: T3, Megakaryocyte-associated tyrosine-protein kinase (Homo sapiens) (UniProt P42679); assay: Selectivity interaction (ProQinase) EUB0000171b MATK
T3 sequence (whole entry): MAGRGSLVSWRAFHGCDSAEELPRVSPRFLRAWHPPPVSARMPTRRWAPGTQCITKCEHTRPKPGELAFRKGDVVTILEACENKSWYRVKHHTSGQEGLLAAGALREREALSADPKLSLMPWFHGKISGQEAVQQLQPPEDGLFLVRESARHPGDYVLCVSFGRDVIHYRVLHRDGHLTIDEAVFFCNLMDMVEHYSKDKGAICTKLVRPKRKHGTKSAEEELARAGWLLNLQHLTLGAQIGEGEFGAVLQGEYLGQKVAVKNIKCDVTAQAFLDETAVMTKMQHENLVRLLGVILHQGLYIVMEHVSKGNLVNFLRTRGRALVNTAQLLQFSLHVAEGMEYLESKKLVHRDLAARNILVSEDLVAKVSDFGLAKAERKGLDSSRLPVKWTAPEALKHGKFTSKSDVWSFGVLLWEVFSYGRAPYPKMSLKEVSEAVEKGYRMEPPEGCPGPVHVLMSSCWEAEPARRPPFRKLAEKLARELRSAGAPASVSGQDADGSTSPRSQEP

[5] = target: T4, Serine/threonine-protein kinase Sgk3 (Homo sapiens) (UniProt Q96BR1); assay: Selectivity interaction (KinomeScan (DiscoverX)) EUB0001049a SGK3; conditions: at 1 µM
T4 sequence (whole entry): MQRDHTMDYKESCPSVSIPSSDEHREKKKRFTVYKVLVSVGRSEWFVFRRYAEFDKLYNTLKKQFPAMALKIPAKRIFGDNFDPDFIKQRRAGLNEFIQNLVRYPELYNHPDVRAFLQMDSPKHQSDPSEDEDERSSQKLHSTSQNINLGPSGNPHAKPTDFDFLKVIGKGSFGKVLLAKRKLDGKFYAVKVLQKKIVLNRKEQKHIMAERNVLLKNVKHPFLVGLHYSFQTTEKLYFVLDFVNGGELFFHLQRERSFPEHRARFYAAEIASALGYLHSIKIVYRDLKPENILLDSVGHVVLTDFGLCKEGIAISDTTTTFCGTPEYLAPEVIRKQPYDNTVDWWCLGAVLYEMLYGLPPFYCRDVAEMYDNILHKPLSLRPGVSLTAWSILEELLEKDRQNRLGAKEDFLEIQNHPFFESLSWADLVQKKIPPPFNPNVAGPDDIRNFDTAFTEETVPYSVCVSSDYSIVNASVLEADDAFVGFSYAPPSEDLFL

SMILES: Cc1cc([C@@H](C)Nc2ccccc2C(=O)O)c2nc(N3CCOCC3)cc(=O)n2c1 [AZD-6482]
- % of control [1]: 100%

- % of inhibition [2]: -11.6%
SMILES: CC[C@@H]1[C@H](F)C(=O)N[C@@H]1COc1nccc2cc(C(N)=O)c(OC)cc12 [ZIMLOVISERTIB]

SMILES: COc1cc(N(C)c2ccnc3ccc(C(F)(F)F)cc23)cc(OC)c1OC
- % binding [3]: 78%

- % of control ([4]; at 1 µM): 92%
- % of control ([4]; at 5 µM): 111%
SMILES: C=CC(=O)Nc1cccc(C(=O)Nc2ccc(Nc3cc(-c4[nH]c(SC)nc4C)ccn3)cc2)c1

SMILES: COc1cc(Nc2nc(C)cc(-c3cnn4nc(OC)ccc34)n2)cc(C(F)(F)F)c1
- % of control [5]: 74%
